According to ChEMBL document CHEMBL1150694, “Jatrophane diterpenoids from Euphorbia mongolica as modulators of the multidrug resistance of L5128 mouse lymphoma cells” (J Nat Prod, 2003):

Key:
Assay type in all cases: cell-based
[1] = target: T1, ATP-dependent translocase ABCB1 (Homo sapiens, UniProt P08183); assay: Inhibition of human MDR1 expressed in mouse L5178 cells assessed as fluorescence activity at 23 uM by rhodamine 123 exclusion test; conditions: l5178, 23 µM
[2] = target: T1, ATP-dependent translocase ABCB1; assay: Inhibition of human MDR1 expressed in mouse L5178 cells assessed as fluorescence activity at 11.2 uM by rhodamine 123 exclusion test; conditions: l5178, 11.2 µM
[3] = target: T1, ATP-dependent translocase ABCB1; assay: Inhibition of human MDR1 expressed in mouse L5178 cells assessed as fluorescence activity at 112 uM by rhodamine 123 exclusion test; conditions: l5178, 112 µM
[4] = target: T1, ATP-dependent translocase ABCB1; assay: Inhibition of human MDR1 expressed in mouse L5178 cells assessed as fluorescence activity ratio at 11.2 uM by rhodamine 123 exclusion test relative to wild type mouse L5178 cells; conditions: l5178, 11.2 µM
[5] = target: T1, ATP-dependent translocase ABCB1; assay: Inhibition of human MDR1 expressed in mouse L5178 cells assessed as fluorescence activity ratio at 112 uM by rhodamine 123 exclusion test relative to wild type mouse L5178 cells; conditions: l5178, 112 µM

T1 sequence (P08183 whole entry): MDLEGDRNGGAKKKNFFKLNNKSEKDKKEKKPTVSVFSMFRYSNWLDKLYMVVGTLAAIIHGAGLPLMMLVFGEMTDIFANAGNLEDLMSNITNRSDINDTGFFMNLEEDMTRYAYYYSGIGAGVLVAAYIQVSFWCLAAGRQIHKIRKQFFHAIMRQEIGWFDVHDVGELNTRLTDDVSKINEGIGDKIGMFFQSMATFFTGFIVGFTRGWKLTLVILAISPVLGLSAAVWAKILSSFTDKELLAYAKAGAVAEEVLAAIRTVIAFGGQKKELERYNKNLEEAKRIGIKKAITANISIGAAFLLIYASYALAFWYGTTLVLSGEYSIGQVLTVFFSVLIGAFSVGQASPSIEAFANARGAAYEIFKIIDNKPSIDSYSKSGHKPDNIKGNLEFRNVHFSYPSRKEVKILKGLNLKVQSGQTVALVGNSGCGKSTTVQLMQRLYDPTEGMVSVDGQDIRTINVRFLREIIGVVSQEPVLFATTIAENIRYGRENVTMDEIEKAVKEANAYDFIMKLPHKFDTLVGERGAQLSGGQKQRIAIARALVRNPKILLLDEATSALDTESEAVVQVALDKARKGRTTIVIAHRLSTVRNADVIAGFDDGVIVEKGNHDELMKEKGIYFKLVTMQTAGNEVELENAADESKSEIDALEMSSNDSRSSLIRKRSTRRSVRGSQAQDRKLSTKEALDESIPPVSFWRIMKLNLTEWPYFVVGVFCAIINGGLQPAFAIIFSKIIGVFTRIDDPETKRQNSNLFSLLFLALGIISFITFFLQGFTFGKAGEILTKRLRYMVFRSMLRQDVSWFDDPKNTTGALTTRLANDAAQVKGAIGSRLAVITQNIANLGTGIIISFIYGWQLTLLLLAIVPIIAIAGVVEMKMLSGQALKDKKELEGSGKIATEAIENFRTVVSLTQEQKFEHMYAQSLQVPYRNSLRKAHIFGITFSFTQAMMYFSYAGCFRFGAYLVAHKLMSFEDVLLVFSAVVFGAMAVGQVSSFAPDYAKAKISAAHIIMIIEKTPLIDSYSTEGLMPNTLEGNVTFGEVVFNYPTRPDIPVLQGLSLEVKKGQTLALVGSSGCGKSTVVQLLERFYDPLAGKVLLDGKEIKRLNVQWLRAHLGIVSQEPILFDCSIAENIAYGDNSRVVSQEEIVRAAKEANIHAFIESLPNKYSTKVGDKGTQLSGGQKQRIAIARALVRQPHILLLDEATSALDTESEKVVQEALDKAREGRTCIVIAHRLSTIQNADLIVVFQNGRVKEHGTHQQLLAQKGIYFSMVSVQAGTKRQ

Compound | Flu intensity [1] | Flu intensity [2] | Flu intensity [3] | Ratio [4] | Ratio [5]
COc1ccc(CCN(C)CCCC(C#N)(c2ccc(OC)c(OC)c2)C(C)C)cc1OC (stereo not drawn) | 158.9 | – | – | – | –
C=C1[C@H](OC(C)=O)[C@H]2[C@@H](OC(=O)c3ccccc3)[C@@H](C)C[C@]2(O)C(=O)[C@@H](C)/C=C/C(C)(C)C(=O)[C@H](OC(C)=O)[C@H]1OC(C)=O (relative stereo) | – | 148.64 | 277.08 | 12.29 | 22.92
C=C1[C@H](OC(C)=O)[C@@H](OC(C)=O)[C@@H](OC(C)=O)C(C)(C)/C=C/[C@H](C)C(=O)[C@@]2(OC(C)=O)C[C@H](C)[C@H](OC(=O)c3ccccc3)[C@@H]2[C@H]1OC(C)=O (relative stereo) | – | 31.46 | 217.81 | 2.6 | 18.02
C=C1[C@H](OC(C)=O)[C@@H](OC(C)=O)[C@@H](OC(C)=O)C(C)(C)/C=C/[C@H](C)C(=O)[C@@]2(OC(C)=O)C[C@H](C)[C@H](OC(C)=O)[C@@H]2[C@H]1OC(=O)c1ccccc1 (relative stereo) | – | 33.71 | 354.21 | 2.79 | 29.29
